Results on ten molecules are retold here after US9814699B2, “Chemical compounds” (Janssen Pharmaceuticals, Inc., priority 2009, dated 2017).

Experiment [1] deals with HCV genotype 1a subgenomic replicon. Description: HCV replicon assay, genotype 1a subgenomic replicon (luciferase). The experiment is classed as cell-based. The conditions noted are these: Hepatitis C virus; genotype 1a replicon stable cell line, luciferase activity measured 48 hours later; read-out: Replicon 1A pEC50 (converted). On the procedure: (§1) Protocol for Testing and Data Analysis of Compounds in the HCV Replicon Assay
(§2) Compounds were assayed for activity against HCV using the genotype 1a and 1b subgenomic replicon model systems. Stable cell lines bearing the genotype 1a and 1b replicons were used for screening of compounds. Both replicons are bicistronic and contain the firefly luciferase gene. The ET cell line is stably transfected with RNA transcripts harboring a I389luc-ubi-neo/NS3-3′/ET replicon with firefly luciferase-ubiquitin-neomycin phosphotransferase fusion protein and EMCV-IRES driven NS3-5B polyprotein containing the cell culture adaptive mutations (E1202G; T1280I; K1846T) (Krieger at al, 2001 and unpublished). The genotype 1a replicon is a stable cell line licensed from Apath LLC, modified to contain the firefly luciferase gene. The cells were grown in DMEM, supplemented with 10% fetal calf serum, 2 mM Glutamine, Penicillin (100 IU/mL)/Streptomycin (100 μg/mL), 1× nonessential amino acids, and 250-500 μg/mL G418 (“Geneticin”). They were all available through Life Technologies (Bethesda, Md.). The cells were plated at 5×10^3 cells/well in 384 well plates containing compounds. The final concentration of compounds ranged between 0.03 pM to 50 μm and the final DMSO concentration of 0.5-1%.
(§3) Luciferase activity was measured 48 hours later by adding a Steady glo reagent (Promega, Madison, Wis.). Percent inhibition of replication data was plotted relative to no compound control. Under the same condition, cytotoxicity of the compounds was determined using cell titer glo (Promega, Madison, Ws). EC50s were determined from an 11 point dose response curve using 3-4-fold serial dilution for each compound, which spans a concentration range >1000 fold. The level of inhibition for each compound was determined with Activity Base or with BioAssay plus the Excel XC50 module. Percent inhibition was determined with the following equation where the cross-talk corrected value is the value from the test well, the compound positive control mean is the average value of the wells with no compound present, and the DMSO negative control mean is the average value of the wells with DMSO but no cells present.
(§4) [formula] These normalized values are exported to EC50 where they are plotted against the molar compound concentrations using the standard four parameter logistic equation: […]

In experiment [2] the test system is HCV genotype 1b subgenomic replicon. The experiment in a line: HCV replicon assay, genotype 1b subgenomic replicon (ET cell line, luciferase). As to conditions: Hepatitis C virus; genotype 1b replicon ET cell line, luciferase activity measured 48 hours later; read-out: Replicon 1B pEC50 (converted). The experiment is classed as cell-based. As for the experimental part:
as §1, §2, §3, §4
(In general: In antiviral work, replicon cells carry a viral genome segment that copies itself.)

With `COC(=O)N[C@H](C(=O)N1CC2(CC1c1ncc(-c3ccc(-c4ccc(-c5cnc([C@@H]6CCCN6C(=O)[C@@H](NC(=O)OC)C(C)C)[nH]5)cc4)cc3)[nH]1)CN(S(C)(=O)=O)C2)C(C)C` (stereo partly drawn) [Example 28, methyl [(1S)-2-methyl-1-({(2S)-2-[4-(4′-{2-[6-((2S)-3-methyl-2-{[(methyloxy)carbonyl]amino}butanoyl)-2-(methylsulfonyl)-2,6-diazaspiro[3.4]oct-7-yl]-1H-imidazol-4-yl}-4-biphenylyl)-1H-imidazol-2-yl]-1-pyrrolidinyl}carbonyl)propyl]carbamate], the EC50 is 1.58 nM in experiment [1] and 0.0501 nM in experiment [2].

`COC(=O)N[C@H](C(=O)N1CCC[C@H]1c1ncc(-c2ccc(-c3ccc(-c4cnc([C@@H]5CC6(CN5C(=O)[C@@H](NC(=O)OC)C(C)C)CC(F)(F)C6)[nH]4)cc3)cc2)[nH]1)C(C)C` [Example 29, methyl [(1S)-1-({(2S)-2-[4-(4′-{2-[(7S)-2,2-difluoro-6-((2S)-3-methyl-2-{[(methyloxy)carbonyl]amino}butanoyl)-6-azaspiro[3.4]oct-7-yl]-1H-imidazol-4-yl}-4-biphenylyl)-1H-imidazol-2-yl]-1-pyrrolidinyl}carbonyl)-2-methylpropyl]carbamate]: the values for the EC50 in experiment [1] and in experiment [2] were 0.1 nM and 0.00316 nM, respectively.

Regarding `COC(=O)N[C@H](C(=O)N1CCC[C@H]1c1ncc(-c2ccc(-c3ccc(-c4cnc(C5CCC6(CCOCC6)N5C(=O)[C@@H](NC(=O)OC)C(C)C)[nH]4)cc3)cc2)[nH]1)C(C)C` (stereo partly drawn) [Example 30, methyl [(1S)-2-methyl-1-({(2S)-2-[4-(4′-{2-[1-((2S)-3-methyl-2-{[(methyloxy)carbonyl]amino}butanoyl)-8-oxa-1-azaspiro[4.5]dec-2-yl]-1H-imidazol-4-yl}-4-biphenylyl)-1H-imidazol-2-yl]-1-pyrrolidinyl}carbonyl)propyl]carbamate], the EC50 in experiment [1] is 1.58 nM; in experiment [2], 0.0631 nM.

For `COC(=O)N[C@H](C(=O)N1CCC[C@H]1c1ncc(-c2ccc(-c3ccc(-c4cnc(C5CCC6(CCOCC6)N5C(C)=O)[nH]4)cc3)cc2)[nH]1)C(C)C` (stereo partly drawn) [Example 31, methyl ((1S)-1-{[(2S)-2-(4-{4′-[2-(1-acetyl-8-oxa-1-azaspiro[4.5]dec-2-yl)-1H-imidazol-4-yl]-4-biphenylyl}-1H-imidazol-2-yl)-1-pyrrolidinyl}carbonyl]-2-methylpropyl)carbamate], the EC50 was 0.316 nM in experiment [1] and 0.0126 nM in experiment [2].

`COC(=O)N[C@H](C(=O)N1CCC[C@H]1c1ncc(-c2ccc(-c3ccc(-c4c[nH]c(C5CCC6(CCC(F)(F)CC6)N5C(=O)[C@@H](NC(=O)OC)C(C)C)n4)cc3)cc2)[nH]1)C(C)C` (stereo partly drawn) [Example 32, methyl [(1S)-1-({(2S)-2-[4-(4′-{2-[8,8-difluoro-1-((2S)-3-methyl-2-{[(methyloxy)carbonyl]amino}butanoyl)-1-azaspiro[4.5]dec-2-yl]-1H-imidazol-4-yl}-4-biphenylyl)-1H-imidazol-2-yl]-1-pyrrolidinyl}carbonyl)-2-methylpropyl]carbamate]: the EC50 in experiment [1] was 1.58 nM; in experiment [2], 0.0158 nM.

With `CC[C@H](NC(=O)OC)C(=O)N1C(c2nc(-c3ccc(-c4ccc(-c5cnc([C@@H]6CCCN6C(=O)[C@@H](NC(=O)OC)C(C)C)[nH]5)cc4)cc3)c[nH]2)CCC12CCC(F)(F)CC2` (stereo partly drawn) [Example 33, methyl [(1S)-1-({8,8-difluoro-2-[4-(4′-{2-[(2S)-1-((2S)-3-methyl-2-{[(methyloxy)carbonyl]amino}butanoyl)-2-pyrrolidinyl]-1H-imidazol-4-yl}-4-biphenylyl)-1H-imidazol-2-yl]-1-azaspiro[4.5]dec-1-yl}carbonyl)propyl]carbamate], the values for the EC50 in experiment [1] and in experiment [2] were 1 nM and 0.0158 nM, respectively.

For `COC(=O)N[C@@H](C)C(=O)N1C(c2nc(-c3ccc(-c4ccc(-c5cnc([C@@H]6CCCN6C(=O)[C@@H](NC(=O)OC)C(C)C)[nH]5)cc4)cc3)c[nH]2)CCC12CCC(F)(F)CC2` (stereo partly drawn) [Example 34, methyl ((1S)-2-{8,8-difluoro-2-[4-(4′-{2-[(2S)-1-((2S)-3-methyl-2-{[(methyloxy)carbonyl]amino}butanoyl)-2-pyrrolidinyl]-1H-imidazol-4-yl}-4-biphenylyl)-1H-imidazol-2-yl]-1-azaspiro[4.5]dec-1-yl}-1-methyl-2-oxoethyl)carbamate], the EC50 was 0.631 nM in experiment [1] and 0.01 nM in experiment [2].

In the case of `COC(=O)N[C@@H](CC(C)C)C(=O)N1C(c2nc(-c3ccc(-c4ccc(-c5cnc([C@@H]6CCCN6C(=O)[C@@H](NC(=O)OC)C(C)C)[nH]5)cc4)cc3)c[nH]2)CCC12CCC(F)(F)CC2` (stereo partly drawn) [Example 35, methyl [(1S)-1-({8,8-difluoro-2-[4-(4′-{2-[(2S)-1-((2S)-3-methyl-2-{[(methyloxy)carbonyl]amino}butanoyl)-2-pyrrolidinyl]-1H-imidazol-4-yl}-4-biphenylyl)-1H-imidazol-2-yl]-1-azaspiro[4.5]dec-1-yl}carbonyl)-3-methylbutyl]carbamate], the EC50 in experiment [1] is 2 nM; in experiment [2], 0.0126 nM.

Regarding `COC(=O)N[C@H](C(=O)N1CCC[C@H]1c1ncc(-c2ccc(-c3ccc(-c4c[nH]c(C5CCC6(CCC(F)(F)CC6)N5C(C)=O)n4)cc3)cc2)[nH]1)C(C)C` (stereo partly drawn) [Example 36, methyl ((1S)-1-{[(2S)-2-(4-{4′-[2-(1-acetyl-8,8-difluoro-1-azaspiro[4.5]dec-2-yl)-1H-imidazol-4-yl]-4-biphenylyl}-1H-imidazol-2-yl)-1-pyrrolidinyl]carbonyl}-2-methylpropyl)carbamate], the figures for the EC50 in experiment [1] and in experiment [2] were 25.1 nM and 0.1 nM, respectively.

As to `COC(=O)N[C@H](C(=O)N1CCC[C@H]1c1ncc(-c2ccc(-c3ccc(-c4c[nH]c(C5CCC6(CCS(=O)(=O)CC6)N5C(=O)[C@@H](NC(=O)OC)C(C)C)n4)cc3)cc2)[nH]1)C(C)C` (stereo partly drawn) [Example 37, methyl [(1S)-2-methyl-1-({(2S)-2-[4-(4′-{2-[1-((2S)-3-methyl-2-{[(methyloxy)carbonyl]amino}butanoyl)-8,8-dioxido-8-thia-1-azaspiro[4.5]dec-2-yl]-1H-imidazol-4-yl}-4-biphenylyl)-1H-imidazol-2-yl]-1-pyrrolidinyl}carbonyl)propyl]carbamate], the values for the EC50 in experiment [1] and in experiment [2] were 12.6 nM and 0.316 nM, respectively.
